According to the NIST ThermoML archive (doi:10.1021/je200766t):
Numbers after ± are expanded uncertainties.

Settings: Liquid, Closed cell (Static) method

In the case of OCC(O)CO [glycerol], the “vapor or sublimation pressure” value (351.8 K) is reported as 0.00583 ± 0.00043 kPa, the “vapor or sublimation pressure” value (362.02 K) is reported as 0.0129 ± 0.0009 kPa and the “vapor or sublimation pressure” value (372.06 K) is reported as 0.0258 ± 0.0017 kPa. For the same compound, the “vapor or sublimation pressure” value (382.08 K) was 0.0544 ± 0.0034 kPa, the “vapor or sublimation pressure” value (392.18 K) was 0.102 ± 0.006 kPa and the “vapor or sublimation pressure” value (402.16 K) was 0.18 ± 0.011 kPa. For the same compound, the “vapor or sublimation pressure” value (412.24 K) was 0.315 ± 0.019 kPa, the “vapor or sublimation pressure” value (422.28 K) was 0.534 ± 0.032 kPa and the “vapor or sublimation pressure” value (432.45 K) was 0.981 ± 0.021 kPa. For the same compound, the “vapor or sublimation pressure” value (452.64 K) was 2.747 ± 0.02 kPa and the “vapor or sublimation pressure” value (462.86 K) was 4.099 ± 0.029 kPa.
For OCCCO [propan-1,3-diol], the “vapor or sublimation pressure” value (313.2 K) was 0.0111 ± 0.0008 kPa, the “vapor or sublimation pressure” value (323.26 K) was 0.026 ± 0.0017 kPa and the “vapor or sublimation pressure” value (333.23 K) was 0.0574 ± 0.0036 kPa. For the same compound, the “vapor or sublimation pressure” value (343.16 K) was 0.12 ± 0.007 kPa, the “vapor or sublimation pressure” value (351.33 K) was 0.221 ± 0.014 kPa and the “vapor or sublimation pressure” value (361.61 K) was 0.43 ± 0.026 kPa. The “vapor or sublimation pressure” value (362.97 K) was 0.462 ± 0.028 kPa, the “vapor or sublimation pressure” value (371.65 K) was 0.785 ± 0.017 kPa and the “vapor or sublimation pressure” value (381.7 K) was 1.395 ± 0.03 kPa. For the same compound, the “vapor or sublimation pressure” value (391.7 K) was 2.376 ± 0.049 kPa, the “vapor or sublimation pressure” value (391.73 K) was 2.374 ± 0.049 kPa and the “vapor or sublimation pressure” value (401.64 K) was 3.883 ± 0.079 kPa. For the same compound, the “vapor or sublimation pressure” value (411.71 K) was 6.212 ± 0.13 kPa, the “vapor or sublimation pressure” value (421.69 K) was 9.628 ± 0.2 kPa and the “vapor or sublimation pressure” value (431.74 K) was 14.62 ± 0.096 kPa. For the same compound, the “vapor or sublimation pressure” value (441.73 K) was 21.63 ± 0.14 kPa, the “vapor or sublimation pressure” value (451.78 K) was 31.44 ± 0.2 kPa and the “vapor or sublimation pressure” value (461.85 K) was 44.81 ± 0.29 kPa.
